Results taken from patent publication US12371430B2, “5-morpholin-4-yl-pyrazolo[4,3-b]pyridine derivatives” (Merck Patent GmbH, priority 2018, dated 2025).

Key:
[1] = tested on: phosphorylation of Chk1 (Ser 345) in HT29 colon adenocarcinoma cells; assay: pCHK1 cellular assay; assay type: cell-based; settings: Homo sapiens, HT-29, hydroxyurea 3 mM, 4 h
Description: Chk1 kinase acts downstream of ATR and has a key role in DNA damage checkpoint control. Activation of Chk1 involves phosphorylation of Ser317 and Ser345 (regarded as the preferential target for phosphorylation/activation by ATR) and occurs in response to blocked DNA replication and certain forms of genotoxic stress. Phosphorylation at Ser 345 serves to localize Chk1 to the nucleus following checkpoint activation.
This assay measures a decrease in phosphorylation of Chk1 (Ser 345) in HT29 colon adenocarcinoma cells following treatment with compound and hydroxyurea (which promotes fork stalling because of dNTP depletion) and using an immunocytochemical procedure and high content imaging.
For the assay HT29 cells are plated in culture medium (DMEM high Glucose (no phenol red), 2 mM Glutamax, 1 mM Pyruvate, 10% FCS into Greiner 384 well plates, black, μclear #781090 (2500 cells/well/30 μl) and incubated for at least 20 hours at 37° C., 10% CO2 and 90% rH. Diluted test compounds (1 nM-30 μM final) and hydroxyurea (3 mM final) are added simultaneously and cells are incubated for 4 h at 37° C. After fixation/prmeabilisation with 100% MeOH (−20° C. cold) and permeabilisation with 0.2% Triton X-100 a complete immunocytochemical procedure is performed using a specific anti-pChk1 antibody (Cell Signaling, #2348BF) and fluorescently labelled secondary antibody (Alexa Fluor® 488 goat anti-rabbit F(ab′)2 fragment, Invitrogen A11070) and parallel nuclear staining for cell counting.
The nuclear localised pChk1 signal is detected on an ImageXpress Ultra confocal high content reader and reported as % positive cells (nuclei).

ATR/ATRIP = ATR/ATRIP (Homo sapiens (Human), UniProt Q13535); assay: ATR/ATRIP kinase assay (TR-FRET, p53 Ser15 phosphorylation); assay type: biochemical; settings: 0.5 μM ATP, 50 nM p53
Protocol: ATR/ATRIP Kinase Assay—Measurement of ATR/ATRIP Inhibition
The IC50 value was determined by an ATR/ATRIP enzymatic assay. The assay comprises two steps: the enzymatic reaction and the detection step. First, a mixture of ATR/ATRIP protein (Ataxia Telangiectasia and Rad3-related protein/ATR interacting protein), the compound in question at different concentrations, p53 as substrate protein and adenosine triphosphate (ATP) are incubated in assay buffer. ATR phosporylates p53 at Ser15 and other residues. The amount of phosphorylated p53 is then detected using specific antibodies and the TR-FRET assay technology.
In detail: The ATR/ATRIP enzymatic assay is performed as a TR-FRET-(HTRF™, Cisbio Bioassays) based 384-well assay. In a first step, purified human recombinant ATR/ATRIP (human ATR, full length, GenBank ID: NM_001184.3, and human ATRIP, full length, GenBank ID AF451323.1, co-expressed in a mammalian cell line) is incubated in assay buffer for 15 minutes at 22° C. with test compound at different concentrations or without test compound (as a negative control). The assay buffer contains 25 mM HEPES pH 8.0, 10 mM Mg(CH3COO)2, 1 mM MnCl2, 0.1% BSA, 0.01% Brij® 35, and 5 mM dithiothreitol (DTT). An Echo 555 (Labcyte) is used for dispensing of compound solutions. Then, in a second step, purified human recombinant cmyc-tagged p53 (human p53, full length, GenBank ID: BC003596, expressed in Sf21 insect cells) and ATP are added and the reaction mixture is incubated for 25-35 minutes, typically 25 minutes, at 22° C. The pharmacologically relevant assay volume is 5 μl. The final concentrations in the assay during incubation of the reaction mixture are 0.3-0.5 nM, typically 0.3 nM, ATR/ATRIP, 50 nM p53, and 0.5 μM ATP. The enzymatic reaction is stopped by the addition of EDTA. The generation of phosphorylated p53 as a result of the ATR mediated reaction in the presence of ATP is detected by using specific antibodies [labeled with the fluorophores europium (Eu) as donor and d2 as acceptor (Cisbio Bioassays)] enabling FRET. For this purpose, 2 μl of antibody-containing stop solution (12.5 mM HEPES pH 8.0, 125 mM EDTA, 30 mM sodium chloride, 300 mM potassium fluoride, 0.006% Tween-20, 0.005% Brij® 35, 0.21 nM anti-phospho-p53(Ser15)-Eu antibody, 15 nM anti-cmyc-d2 antibody) are added to the reaction mixture. Following signal development for 2 h the plates are analyzed in an EnVision (PerkinElmer) microplate reader using the TRF mode with laser excitation. Upon excitation of the donor europium at 340 nm the emitted fluorescence light of the acceptor d2 at 665 nm as well as from the donor Eu at 615 nm are measured. The amount of phosphorylated p53 is directly proportional to the ratio of the amounts of emitted light i.e. the ratio of the relative fluorescence units (rfu) at 665 nm and 615 nm. Data are processed employing the Genedata Screener software. In particular, IC50 values are determined in the usual manner by fitting a dose-response curve to the data points using nonlinear regression analysis. • IC50=half maximal inhibitory concentration • ATP=Adenosine triphosphate • TR-FRET=Time-Resolved Fluorescence Resonance Energy Transfer • HTRF®=Homogeneous Time Resolved Fluorescence • HEPES=2-(4-(2-Hydroxyethyl)-1-piperazinyl)-ethanesulfonic acid • Mg(CH3COO)2=Magnesium acetate • MnCl2=Manganese(II)-chloride • BSA=Bovine Serum Albumin • EDTA=Ethylendiamine Tetraacetate • TRF=Time Resolved Fluorescence pCHK1 Cellular Assay

Sequence of ATR/ATRIP (Q13535 whole entry): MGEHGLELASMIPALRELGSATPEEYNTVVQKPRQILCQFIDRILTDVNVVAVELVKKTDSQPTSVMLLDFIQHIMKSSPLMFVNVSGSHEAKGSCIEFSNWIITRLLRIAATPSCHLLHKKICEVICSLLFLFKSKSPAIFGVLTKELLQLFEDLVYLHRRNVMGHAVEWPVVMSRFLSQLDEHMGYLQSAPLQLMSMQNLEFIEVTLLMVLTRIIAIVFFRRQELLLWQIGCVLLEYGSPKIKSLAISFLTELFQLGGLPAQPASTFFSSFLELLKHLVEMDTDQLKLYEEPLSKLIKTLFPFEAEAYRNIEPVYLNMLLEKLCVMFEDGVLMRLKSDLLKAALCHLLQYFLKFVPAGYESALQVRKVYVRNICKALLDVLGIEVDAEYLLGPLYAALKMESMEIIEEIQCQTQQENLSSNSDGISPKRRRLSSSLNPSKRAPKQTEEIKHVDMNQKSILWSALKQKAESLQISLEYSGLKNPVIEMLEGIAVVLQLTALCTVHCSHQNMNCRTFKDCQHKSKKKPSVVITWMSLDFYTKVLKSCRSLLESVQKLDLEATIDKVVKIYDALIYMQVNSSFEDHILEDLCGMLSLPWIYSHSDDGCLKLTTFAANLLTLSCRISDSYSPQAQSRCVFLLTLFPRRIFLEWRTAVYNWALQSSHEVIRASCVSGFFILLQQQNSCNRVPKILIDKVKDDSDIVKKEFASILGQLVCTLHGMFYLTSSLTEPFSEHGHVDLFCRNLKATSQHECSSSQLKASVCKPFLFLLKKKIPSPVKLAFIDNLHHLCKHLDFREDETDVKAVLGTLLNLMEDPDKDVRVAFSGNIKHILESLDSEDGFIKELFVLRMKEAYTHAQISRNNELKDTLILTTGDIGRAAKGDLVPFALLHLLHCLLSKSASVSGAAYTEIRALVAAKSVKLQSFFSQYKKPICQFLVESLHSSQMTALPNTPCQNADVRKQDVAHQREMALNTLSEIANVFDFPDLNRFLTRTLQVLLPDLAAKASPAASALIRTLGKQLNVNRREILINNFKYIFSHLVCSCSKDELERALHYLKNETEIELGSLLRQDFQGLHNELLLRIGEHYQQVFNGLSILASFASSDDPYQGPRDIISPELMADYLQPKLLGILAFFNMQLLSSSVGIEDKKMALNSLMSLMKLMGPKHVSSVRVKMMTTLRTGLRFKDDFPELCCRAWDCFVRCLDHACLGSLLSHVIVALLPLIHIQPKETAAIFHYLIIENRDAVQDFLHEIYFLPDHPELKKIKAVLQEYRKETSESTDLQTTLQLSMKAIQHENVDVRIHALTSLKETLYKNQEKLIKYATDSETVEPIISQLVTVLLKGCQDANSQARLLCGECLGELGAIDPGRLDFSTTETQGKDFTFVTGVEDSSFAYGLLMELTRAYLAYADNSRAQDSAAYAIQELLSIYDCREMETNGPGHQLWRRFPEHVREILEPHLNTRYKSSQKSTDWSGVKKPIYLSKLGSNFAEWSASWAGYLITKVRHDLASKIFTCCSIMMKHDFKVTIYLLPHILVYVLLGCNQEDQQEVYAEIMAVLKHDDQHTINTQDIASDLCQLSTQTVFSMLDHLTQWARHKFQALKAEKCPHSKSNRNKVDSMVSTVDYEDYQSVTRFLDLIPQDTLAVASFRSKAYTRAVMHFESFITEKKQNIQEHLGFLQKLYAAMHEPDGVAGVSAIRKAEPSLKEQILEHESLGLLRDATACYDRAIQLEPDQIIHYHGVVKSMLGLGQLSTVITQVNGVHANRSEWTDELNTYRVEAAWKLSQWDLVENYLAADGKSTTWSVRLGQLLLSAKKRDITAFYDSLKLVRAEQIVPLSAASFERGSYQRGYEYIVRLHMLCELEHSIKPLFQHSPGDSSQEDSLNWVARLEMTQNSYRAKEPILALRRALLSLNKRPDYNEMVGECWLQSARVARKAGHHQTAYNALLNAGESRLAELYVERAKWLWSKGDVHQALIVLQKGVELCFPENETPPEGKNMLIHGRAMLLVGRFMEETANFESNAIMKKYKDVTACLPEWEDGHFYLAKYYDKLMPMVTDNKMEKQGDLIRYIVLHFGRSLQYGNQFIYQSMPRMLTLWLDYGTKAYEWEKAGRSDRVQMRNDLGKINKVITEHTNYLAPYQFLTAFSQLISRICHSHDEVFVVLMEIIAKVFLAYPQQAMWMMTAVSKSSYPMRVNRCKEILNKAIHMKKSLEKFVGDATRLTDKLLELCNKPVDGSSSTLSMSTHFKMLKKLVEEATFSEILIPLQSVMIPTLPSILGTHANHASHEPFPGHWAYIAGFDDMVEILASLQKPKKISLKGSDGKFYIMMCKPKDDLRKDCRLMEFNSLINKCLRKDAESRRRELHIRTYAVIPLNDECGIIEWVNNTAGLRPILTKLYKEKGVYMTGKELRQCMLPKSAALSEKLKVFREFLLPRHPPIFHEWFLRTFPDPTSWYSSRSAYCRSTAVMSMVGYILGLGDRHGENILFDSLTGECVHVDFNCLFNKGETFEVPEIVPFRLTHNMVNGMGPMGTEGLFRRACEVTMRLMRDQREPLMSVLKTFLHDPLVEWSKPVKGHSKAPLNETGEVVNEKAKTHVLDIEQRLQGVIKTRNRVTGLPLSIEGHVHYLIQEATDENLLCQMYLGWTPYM
Sequence of ATR/ATRIP (Q8WXE1 whole entry partner): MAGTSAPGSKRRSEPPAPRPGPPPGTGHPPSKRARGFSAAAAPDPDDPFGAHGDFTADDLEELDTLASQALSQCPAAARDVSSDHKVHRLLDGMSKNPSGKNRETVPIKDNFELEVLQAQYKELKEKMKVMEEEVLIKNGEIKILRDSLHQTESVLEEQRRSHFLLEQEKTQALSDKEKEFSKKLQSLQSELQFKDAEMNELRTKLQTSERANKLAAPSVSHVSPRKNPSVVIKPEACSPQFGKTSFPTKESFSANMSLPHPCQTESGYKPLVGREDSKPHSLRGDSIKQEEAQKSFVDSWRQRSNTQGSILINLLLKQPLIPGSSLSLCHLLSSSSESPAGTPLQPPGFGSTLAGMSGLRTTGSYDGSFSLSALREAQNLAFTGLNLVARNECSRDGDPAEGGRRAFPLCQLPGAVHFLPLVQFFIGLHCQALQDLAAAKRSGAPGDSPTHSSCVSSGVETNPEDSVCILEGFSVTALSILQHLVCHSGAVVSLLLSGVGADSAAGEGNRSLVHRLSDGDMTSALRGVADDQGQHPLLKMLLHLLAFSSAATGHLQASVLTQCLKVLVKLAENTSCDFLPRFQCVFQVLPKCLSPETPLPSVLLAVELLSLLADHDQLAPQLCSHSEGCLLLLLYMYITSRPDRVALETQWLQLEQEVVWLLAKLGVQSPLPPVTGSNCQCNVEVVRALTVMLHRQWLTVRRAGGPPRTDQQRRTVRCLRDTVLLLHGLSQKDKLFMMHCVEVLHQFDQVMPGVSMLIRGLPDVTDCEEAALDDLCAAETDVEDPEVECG

| Structure (SMILES) | IC50 [1] [µM] | IC50 (ATR/ATRIP) [µM] |
| --- | --- | --- |
| C[C@@H]1COCCN1c1cc(C(N)=O)c2[nH]nc(-c3cc[nH]n3)c2n1 [Compound 29, 5-((R)-3-Methyl-morpholin-4-yl)-3-(1H-pyrazol-3-yl)-1H-pyrazolo[4,3-b]pyridine-7-carboxylic acid amide] | 1 to 10 | 0.0054 |
| C[C@@H]1COCCN1c1cc(C(N)=O)c2c(n1)c(-c1cc[nH]n1)nn2C [Compound 32, 1-Methyl-5-((R)-3-methyl-morpholin-4-yl)-3-(1H-pyrazol-3-yl)-1H-pyrazolo[4,3-b]pyridine-7-carboxylic acid amide] | 1 to 10 | 0.02 |
| CC(C)Oc1cc(N2CCOC[C@H]2C)nc2c(-c3ccn[nH]3)nn(C)c12 [Compound 44, 7-Isopropoxy-1-methyl-5-((R)-3-methyl-morpholin-4-yl)-3-(2H-pyrazol-3-yl)-1H-pyrazolo[4,3-b]pyridine] | 0.1 to 1 | 0.0042 |
| C[C@@H]1COCCN1c1ccc2c(n1)c(-c1cc[nH]n1)nn2-c1ccc(S(C)(=O)=O)cc1 [Compound 46, 1-(4-Methanesulfonyl-phenyl)-5-((R)-3-methyl-morpholin-4-yl)-3-(1H-pyrazol-3-yl)-1H-pyrazolo[4,3-b]pyridine] | 1 to 10 | 0.025 |
| C[C@@H]1COCCN1c1ccc2c(n1)c(-c1cc[nH]n1)nn2-c1cccc(S(C)(=O)=O)c1 [Compound 47, 1-(3-Methanesulfonyl-phenyl)-5-((R)-3-methyl-morpholin-4-yl)-3-(1H-pyrazol-3-yl)-1H-pyrazolo[4,3-b]pyridine] | 1 to 10 | 0.089 |
| COCc1ccc(-c2cc(N3CCOC[C@H]3C)nc3c(-c4cc[nH]n4)nn(C)c23)cc1 [Compound 51, (3R)-4-{7-[4-(Methoxymethyl)phenyl]-1-methyl-3-(1H-pyrazol-3-yl)-1H-pyrazolo[4,3-b]pyridin-5-yl}-3-methylmorpholine] | 0.1 to 1 | 0.0012 |
| C[C@@H]1COCCN1c1ccc2c(n1)c(-c1cc[nH]n1)nn2-c1cccc(C#N)c1 [Compound 53, 3-[5-((3R)-3-Methyl-morpholin-4-yl)-3-(1H-pyrazol-3-yl)-1H-pyrazolo[4,3-b]pyridin-1-yl]-benzonitrile] | 1 to 10 | 0.058 |
| C[C@@H]1COCCN1c1ccc2[nH]nc(-c3cc[nH]n3)c2n1 [Compound 56, (3R)-3-Methyl-4-[3-(1H-pyrazol-3-yl)-1H-pyrazolo[4,3-b]pyridin-5-yl]morpholine] | 1 to 10 | 0.025 |

Second part, the compound after the results:

| IC50 [1] [µM] | IC50 (ATR/ATRIP) [µM] | Structure (SMILES) |
| --- | --- | --- |
| 0.1 to 1 | 0.028 | C[C@@H]1COCCN1c1cc(CO)c2c(n1)c(-c1cc[nH]n1)nn2C [Compound 24, [1-Methyl-5-((R)-3-methyl-morpholin-4-yl)-3-(1H-pyrazol-3-yl)-1H-pyrazolo[4,3-b]pyridin-7-yl]-methanol] |
| 0.1 to 1 | 0.01 | C[C@@H]1COCCN1c1cc(C(=O)N(C)C)c2[nH]nc(-c3cc[nH]n3)c2n1 [Compound 27, 5-((R)-3-Methyl-morpholin-4-yl)-3-(1H-pyrazol-3-yl)-1H-pyrazolo[4,3-b]pyridine-7-carboxylic acid dimethylamide] |
| 0.1 to 1 | 0.0053 | CNC(=O)c1cc(N2CCOC[C@H]2C)nc2c(-c3cc[nH]n3)n[nH]c12 [Compound 28, 5-((R)-3-Methyl-morpholin-4-yl)-3-(1H-pyrazol-3-yl)-1H-pyrazolo[4,3-b]pyridine-7-carboxylic acid methylamide] |
| 0.1 to 1 | 0.015 | C[C@@H]1COCCN1c1cc(C(=O)N(C)C)c2c(n1)c(-c1cc[nH]n1)nn2C [Compound 30, 1-Methyl-5-((R)-3-methyl-morpholin-4-yl)-3-(1H-pyrazol-3-yl)-1H-pyrazolo[4,3-b]pyridine-7-carboxylic acid dimethylamide] |
| 0.1 to 1 | 0.033 | CNC(=O)c1cc(N2CCOC[C@H]2C)nc2c(-c3cc[nH]n3)nn(C)c12 [Compound 31, 1-Methyl-5-((R)-3-methyl-morpholin-4-yl)-3-(1H-pyrazol-3-yl)-1H-pyrazolo[4,3-b]pyridine-7-carboxylic acid methylamide] |
| 0.1 to 1 | 0.016 | Cc1cccc(-c2cc(N3CCOC[C@H]3C)nc3c(-c4cc[nH]n4)nn(C)c23)n1 [Compound 33, 1-Methyl-5-((R)-3-methyl-morpholin-4-yl)-7-(6-methyl-pyridin-2-yl)-3-(1H-pyrazol-3-yl)-1H-pyrazolo[4,3-b]pyridine] |
| 0.1 to 1 | 0.0079 | C[C@@H]1COCCN1c1cc(-c2ccn(CCO)n2)c2c(n1)c(-c1cc[nH]n1)nn2C [Compound 37, 2-{3-[1-Methyl-5-((R)-3-methyl-morpholin-4-yl)-3-(1H-pyrazol-3-yl)-1H-pyrazolo[4,3-b]pyridin-7-yl]-pyrazol-1-yl}-ethanol] |
| 0.1 to 1 | 0.0043 | C[C@@H]1COCCN1c1cc(-c2ccccn2)c2[nH]nc(-c3cc[nH]n3)c2n1 [Compound 38, (3R)-3-Methyl-4-[3-(1H-pyrazol-3-yl)-7-(pyridin-2-yl)-1H-pyrazolo[4,3-b]pyridin-5-yl]morpholine] |
| 0.1 to 1 | 0.0079 | Cc1cccnc1-c1cc(N2CCOC[C@H]2C)nc2c(-c3cc[nH]n3)n[nH]c12 [Compound 39, (3R)-3-Methyl-4-[7-(3-methylpyridin-2-yl)-3-(1H-pyrazol-3-yl)-1H-pyrazolo[4,3-b]pyridin-5-yl]morpholine] |
| 0.01 to 0.1 | 0.0013 | CC(C)n1nc(-c2cc[nH]n2)c2nc(N3CCOC[C@H]3C)cc(-c3ccc(S(C)(=O)=O)cc3)c21 [Compound 41, (3R)-4-[7-(4-Methanesulfonylphenyl)-1-(propan-2-yl)-3-(1H-pyrazol-3-yl)-1H-pyrazolo[4,3-b]pyridin-5-yl]-3-methylmorpholine] |
| 0.1 to 1 | 0.0039 | C[C@@H]1COCCN1c1cc(C2CC2)c2c(n1)c(-c1ccn[nH]1)nn2C [Compound 43, 7-Cyclopropyl-1-methyl-5-((R)-3-methyl-morpholin-4-yl)-3-(2H-pyrazol-3-yl)-1H-pyrazolo[4,3-b]pyridine] |
| 0.01 to 0.1 | 0.0014 | C[C@@H]1COCCN1c1cc(-c2ccc(CO)cc2)c2c(n1)c(-c1cc[nH]n1)nn2C [Compound 52, (4-{1-Methyl-5-[(3R)-3-methylmorpholin-4-yl]-3-(1H-pyrazol-3-yl)-1H-pyrazolo[4,3-b]pyridin-7-yl}phenyl)methanol] |
